Measured values as given in patent publication US9930890B2 (priority 2010, dated 2018).

How the values were obtained:
Phytophthora infestans = type: in vivo; conditions: tomato plants, protective spray, active ingredient concentration 100 ppm, evaluation 7 days after inoculation; 0% = control, 100% = no infection
Plasmopara viticola = test: Plasmopara test (grapevine)/protective; type: in vivo; conditions: grapevine young plants, protective spray, active ingredient concentration 10 ppm, evaluation 6 days after inoculation; 0% = control, 100% = no infection
Description: Plasmopara Test (Grapevine)/Protective
To produce an appropriate active ingredient formulation, 1 part by weight of active ingredient is mixed with the specified amounts of solvent and emulsifier, and the concentrate is diluted with water to the desired concentration.
To test for protective efficacy, young plants are sprayed with the active ingredient formulation at the stated application rate. After the spray coating has dried on, the plants are inoculated with an aqueous spore suspension of Plasmopara viticola and then remain in an incubation cabin at approx. 20° C. and 100% relative air humidity for 1 day. Subsequently, the plants are placed in a greenhouse at approx. 21° C. and approx. 90% air humidity for 4 days. The plants are then moistened and placed in an incubation cabin for 1 day.
Evaluation follows 6 days after the inoculation. 0% means an efficacy which corresponds to that of the control, whereas an efficacy of 100% means that no infection is observed.
In this test, the following inventive compounds show, at an active ingredient concentration of 10 ppm, an efficacy of 70% or more: […]

Peronospora brassicae = test: Peronospora test (oilseed rape seeds)/seed treatment; type: in vivo; conditions: seed treatment, dose 50 g/dt, infected leaf area per plant after 7 days incubation, 0% = control, 100% = no disease
Description: Peronospora Test (Oilseed Rape Seeds)/Seed Treatment
The test was conducted under greenhouse conditions.
Oilseed rape seeds treated with an inventive active compound or a combination of inventive active compounds dissolved in N-methyl-2-pyrrolidone and diluted with water to the desired dose were sown in 6*6 cm vessels. The vessels contain 4 cm of a 1:1 mixture of steam-treated field soil and sand. The plants grew at 10° C.
14-day-old plants were inoculated with an aqueous spore suspension of Peronospora brassicae. The vessels containing the plants were incubated in a greenhouse at a temperature of 15° C. and a relative air humidity of 100% for 7 days.
The assessment of the test included the evaluation of the infected leaf area per plant. 0% means an efficiency corresponding to that of the control, while an efficiency of 100% means that no disease is observed.

[1] = for logp [a]: pH 2.7; for logp [b]: pH 7.8

Row | Compound | Eff. % (Phytophthora infestans) [%] | Eff. % (Plasmopara viticola) [%] | Eff. % (Peronospora brassicae) [%] | logp [a] [1] | logp [b] [1] | chromatographic logP (physchem; pH 2.7) | chromatographic logP (physchem; pH 7.8)
1 | O=C(Cn1nc(C(F)F)cc1C(F)F)N1CCC(c2nc(C3=NOC(c4ccccc4C=NO)C3)cs2)CC1 (mixture of isomers) [I-4] | 100 | 100 | 92 | – | – | – | –
2 | Cc1cc(C(F)(F)F)nn1CC(=O)N1CCC(c2nc(C3=NOC(c4ccccc4C=NO)C3)cs2)CC1 (mixture of isomers) [I-38] | 100 | 95 | 86 | – | – | – | –
3 | CON=Cc1cccc(F)c1C1CC(c2csc(C3CCN(C(=O)Cn4nc(C(F)F)cc4C(F)F)CC3)n2)=NO1 (mixture of isomers) [I-60] | 84 | 100 | 95 | 3.49[a], | 3.38[b] | – | –
4 | Cc1cc(C(F)(F)F)nn1CC(=O)N1CCC(c2nc(C3=NOC(c4ccccc4OS(=O)(=O)C4CC4)C3)cs2)CC1 (racemic) [I-61] | 89 | 100 | 90 | 3.29[a], | 3.31[b] | – | –
5 | Cc1cc(C(F)(F)F)nn1CC(=O)N1CCC(c2nc(C3=NOC(c4ccccc4OS(C)(=O)=O)C3)cs2)CC1 (racemic) [I-62] | 89 | 100 | 90 | 3.07[a], | 2.98[b] | – | –
6 | C[Si](C)(C)C#CCOc1ccccc1C1CC(c2csc(C3CCN(C(=O)Cn4nc(C(F)F)cc4C(F)F)CC3)n2)=NO1 (stereo not drawn) [I-1, 2-[3,5-Bis(difluoromethyl)-1H-pyrazol-1-yl]-1-(4-{4-[5-(2-{[3-(trimethylsilyl)prop-2-yn-1-yl]oxy}phenyl)-4,5-dihydro-1,2-oxazol-3-yl]-1,3-thiazol-2-yl}piperidin-1-yl)ethanone] | – | – | – | – | – | 4.71 | 4.58
7 | CC(C)(C)OC(=O)Nc1ccc(C2CC(c3csc(C4CCN(C(=O)Cn5nc(C(F)F)cc5C(F)F)CC4)n3)=NO2)cc1 (stereo not drawn) [I-17, tert-Butyl (4-{3-[2-(1-([3,5-bis(difluoromethyl)-1H-pyrazol-1-yl]acetyl}piperidin-4-yl)-1,3-thiazol-4-yl]-4,5-dihydro-1,2-oxazol-5-yl)phenyl)carbamate] | – | – | – | – | – | 3.45 | 3.46
8 | CON=Cc1ccccc1C1CC(c2csc(C3CCN(C(=O)Cn4nc(C(F)F)cc4C(F)F)CC3)n2)=NO1 (stereo not drawn) [I-26, 2-{3-[2-(1-{[3,5-Bis(difluoromethyl)-1H-pyrazol-1-yl]acetyl}piperidin-4-yl)-1,3-thiazol-4-yl]-4,5-dihydro-1,2-oxazol-5-yl}benzaldehyde O-methyloxime] | – | 100 | – | – | – | 3.59 | –
9 | CON=Cc1ccccc1C1CC(c2csc(C3CCN(C(=O)Nc4cc(Cl)ccc4C)CC3)n2)=NO1 (stereo not drawn) [I-41, N-(5-Chloro-2-methylphenyl)-4-[4-(5-{2-[(methoxyimino)methyl]phenyl}-4,5-dihydro-1,2-oxazol-3-yl)-1,3-thiazol-2-yl]piperidine-1-carboxamide] | – | 81 | – | – | – | 3.95 | –
10 | CCS(=O)(=O)Oc1ccccc1C1CC(c2csc(C3CCN(C(=O)Cn4nc(C(F)F)cc4C(F)F)CC3)n2)=NO1 (stereo not drawn) [I-65] | 100 | 100 | 90 | 3.1[a], | 3.09[b] | – | –
11 | CS(=O)(=O)Oc1ccccc1C1CC(c2csc(C3CCN(C(=O)Cn4nc(C(F)F)cc4C(F)F)CC3)n2)=NO1 (stereo not drawn) [I-124] | 100 | 100 | 100 | 2.86[a], | 2.86[b] | – | –
